One test deals with LNCaP cells. The test is described as follows: LNCaP cell viability assay (CellTiter-Glo). The format is cell-based. The following applies: for IC50: Homo sapiens, 72 h, LNCaP prostate cancer cell viability inhibition, 3 days. An outline of the steps: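 LNCaP cells, 5000/well, exposed to compounds in 12-point 3-fold serial dilution (top 10 μM) for 3 days. Viability by CellTiter-Glo luminescence, normalized to untreated cells; IC50 by least-squares nonlinear regression.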
(In general: Cellular ATP, detected with luciferase, serves as a proxy for viable cell number.)

The next test concerns the target P300 (Homo sapiens, UniProt Q09472). The test is described as follows: Immunoblotting of P300 protein levels in LNCaP or 22RV1 cells. It counts as cell-based. Also on record: LNCaP or 22RV1 cells that express CBP/P300 proteins were treated with GNE-781 or the bivalent compounds; endogenous in cells; host or cells: LNCaP (clone FGC) or 22RV1 cells. The following applies: read-out: Degradation (10 nM). An outline of the steps:
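LNCaP or 22RV1 cells treated with compounds for indicated hours, DMSO as negative control. RIPA lysates resolved by SDS-PAGE and immunoblotted for P300 or CBP, tubulin or vinculin as loading control; chemiluminescent bands quantitated.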
Background: A western blot detects proteins with antibodies after separation by electrophoresis.

Setting [1] is: percentage of inhibition of p300 at 10 nM (Table 3).
The mark [2] stands for this setting: percentage of inhibition of p300 at 10 nM (Table 2).

The results in this text go back to patent publication US20230073777A1, “CYCLIC-AMP RESPONSE ELEMENT BINDING PROTEIN (CBP) AND/OR ADENOVIRAL E1A BINDING PROTEIN OF 300 KDA (P300) DEGRADATION COMPOUNDS AND METHODS OF USE” (CULLGEN (SHANGHAI), INC., priority 2019, published 2023).

Where two headings read alike, the source gives them in different places. Bounds are passed on as bounds.

The term IC50 denotes the concentration that inhibits the measured activity by half. Low readings indicate higher potency, high ones lower potency.

Sequence of P300 (Q09472 whole entry): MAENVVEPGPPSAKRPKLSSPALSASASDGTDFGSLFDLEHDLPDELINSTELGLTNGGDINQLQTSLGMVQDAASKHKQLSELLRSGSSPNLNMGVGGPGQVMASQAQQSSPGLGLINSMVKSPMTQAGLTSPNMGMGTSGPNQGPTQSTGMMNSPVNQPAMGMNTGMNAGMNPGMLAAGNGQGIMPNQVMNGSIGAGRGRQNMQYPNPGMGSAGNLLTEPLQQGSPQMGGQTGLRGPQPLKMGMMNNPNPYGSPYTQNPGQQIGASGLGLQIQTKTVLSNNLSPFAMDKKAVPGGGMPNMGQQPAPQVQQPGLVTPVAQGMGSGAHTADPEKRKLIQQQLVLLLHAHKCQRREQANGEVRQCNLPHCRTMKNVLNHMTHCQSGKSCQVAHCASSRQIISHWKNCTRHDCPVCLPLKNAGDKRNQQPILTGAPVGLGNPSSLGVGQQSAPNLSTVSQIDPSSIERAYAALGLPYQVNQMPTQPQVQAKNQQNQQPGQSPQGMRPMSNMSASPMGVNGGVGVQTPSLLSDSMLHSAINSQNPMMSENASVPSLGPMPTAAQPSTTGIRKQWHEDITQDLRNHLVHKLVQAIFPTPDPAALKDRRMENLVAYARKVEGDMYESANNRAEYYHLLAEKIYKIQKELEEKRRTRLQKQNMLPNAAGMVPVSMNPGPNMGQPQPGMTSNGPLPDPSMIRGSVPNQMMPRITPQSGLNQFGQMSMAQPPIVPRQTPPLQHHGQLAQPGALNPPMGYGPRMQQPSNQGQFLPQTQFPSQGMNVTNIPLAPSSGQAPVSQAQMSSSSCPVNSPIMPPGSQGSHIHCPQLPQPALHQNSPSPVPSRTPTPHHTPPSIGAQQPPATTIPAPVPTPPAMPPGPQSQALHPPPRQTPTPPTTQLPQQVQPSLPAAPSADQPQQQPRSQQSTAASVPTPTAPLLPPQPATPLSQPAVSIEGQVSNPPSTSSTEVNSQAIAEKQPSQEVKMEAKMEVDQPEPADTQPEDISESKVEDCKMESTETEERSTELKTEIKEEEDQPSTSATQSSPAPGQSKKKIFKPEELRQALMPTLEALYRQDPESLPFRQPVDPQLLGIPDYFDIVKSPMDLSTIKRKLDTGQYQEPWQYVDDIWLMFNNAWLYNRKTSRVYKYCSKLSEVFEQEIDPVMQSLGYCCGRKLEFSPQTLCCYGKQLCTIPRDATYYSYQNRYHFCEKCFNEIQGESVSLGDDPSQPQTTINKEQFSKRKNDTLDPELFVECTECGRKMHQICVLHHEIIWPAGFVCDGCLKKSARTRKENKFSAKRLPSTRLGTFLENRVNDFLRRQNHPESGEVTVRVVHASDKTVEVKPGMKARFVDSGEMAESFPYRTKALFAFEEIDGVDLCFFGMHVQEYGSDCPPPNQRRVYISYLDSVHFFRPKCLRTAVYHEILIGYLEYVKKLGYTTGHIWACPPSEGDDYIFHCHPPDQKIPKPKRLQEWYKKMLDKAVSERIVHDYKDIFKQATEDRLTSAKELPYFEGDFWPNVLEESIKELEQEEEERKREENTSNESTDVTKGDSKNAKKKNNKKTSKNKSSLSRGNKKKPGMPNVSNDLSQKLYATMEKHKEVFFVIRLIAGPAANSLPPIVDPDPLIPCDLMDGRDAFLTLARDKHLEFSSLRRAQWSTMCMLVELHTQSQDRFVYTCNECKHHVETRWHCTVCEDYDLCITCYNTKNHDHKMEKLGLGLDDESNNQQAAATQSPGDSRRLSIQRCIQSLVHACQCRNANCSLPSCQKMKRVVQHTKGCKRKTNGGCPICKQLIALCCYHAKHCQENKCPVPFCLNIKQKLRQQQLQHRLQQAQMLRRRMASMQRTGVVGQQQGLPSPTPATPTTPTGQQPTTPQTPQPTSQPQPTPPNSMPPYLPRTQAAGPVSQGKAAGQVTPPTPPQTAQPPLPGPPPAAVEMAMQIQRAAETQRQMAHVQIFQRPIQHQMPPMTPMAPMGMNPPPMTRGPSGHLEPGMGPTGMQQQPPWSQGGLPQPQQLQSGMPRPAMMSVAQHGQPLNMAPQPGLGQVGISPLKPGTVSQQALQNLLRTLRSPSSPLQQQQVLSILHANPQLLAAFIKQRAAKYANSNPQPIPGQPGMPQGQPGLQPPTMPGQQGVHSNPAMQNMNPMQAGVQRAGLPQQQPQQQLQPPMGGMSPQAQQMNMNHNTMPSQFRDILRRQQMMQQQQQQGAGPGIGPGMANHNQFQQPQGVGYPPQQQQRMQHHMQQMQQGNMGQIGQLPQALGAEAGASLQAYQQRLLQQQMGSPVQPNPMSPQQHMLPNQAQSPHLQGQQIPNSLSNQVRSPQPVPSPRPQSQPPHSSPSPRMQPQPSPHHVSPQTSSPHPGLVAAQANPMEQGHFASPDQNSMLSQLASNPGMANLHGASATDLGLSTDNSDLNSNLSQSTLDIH

In the test with LNCaP cells (CellTiter-Glo (Table 3)), `CC(=O)N1CCc2c(c(N3CCCc4cc(-c5cnn(C)c5)c(C(F)F)cc43)nn2C2CCN(C(=O)CCCCC#Cc3cccc4c3CN(C3CCC(=O)NC3=O)C4=O)CC2)C1` (stereo not shown) [P-122, 3-(4-(7-(4-(5-Acetyl-3-(7-(difluoromethyl)-6-(1-methyl-1H-pyrazol-4-yl)-3,4-dihydroquinolin-1(2H)-yl)-4,5,6,7-tetrahydro-1H-pyrazolo[4,3-c]pyridin-1-yl)piperidin-1-yl)-7-oxohept-1-yn-1-yl)-1-oxoisoindolin-2-yl)piperidine-2,6-dione] came in with an IC50 of 84.4 nM. The inhibition at 0.01 µM at P300 (setting [1]) was above 80%.

Turning to `CC(=O)N1CCc2c(c(N3CCCc4cc(-c5cnn(C)c5)c(C(F)F)cc43)nn2C2CCN(C(=O)CN3CC(CCNc4cccc5c4C(=O)N(C4CCC(=O)NC4=O)C5=O)C3)CC2)C1` (stereo not shown) [P-170, 4-((2-(1-(2-(4-(5-Acetyl-3-(7-(difluoromethyl)-6-(1-methyl-1H-pyrazol-4-yl)-3,4-dihydroquinolin-1(2H)-yl)-4,5,6,7-tetrahydro-1H-pyrazolo[4,3-c]pyridin-1-yl)piperidin-1-yl)-2-oxoethyl)azetidin-3-yl)ethyl)amino)-2-(2,6-dioxopiperidin-3-yl)isoindoline-1,3-dione], half-maximal inhibition with LNCaP cells (CellTiter-Glo (Table 3)) (IC50) required 32.6 nM. In addition, at P300 (setting [1]), the inhibition at 0.01 µM was in the range of 20 to 50%.

`CNC(=O)N1CCc2c(c(N3CCCc4cc(-c5cnn(CC(=O)NCCOCCOCCOCCOCCOCCNc6cccc7c6C(=O)N(C6CCC(=O)NC6=O)C7=O)c5)c(C(F)F)cc43)nn2C2CCOCC2)C1` (stereo not shown) [P-025, 3-(7-(Difluoromethyl)-6-(1-(20-((2-(2,6-dioxopiperidin-3-yl)-1,3-dioxoisoindolin-4-yl)amino)-2-oxo-6,9,12,15,18-pentaoxa-3-azaicosyl)-1H-pyrazol-4-yl)-3,4-dihydroquinolin-1(2H)-yl)-N-methyl-1-(tetrahydro-2H-pyran-4-yl)-1,4,6,7-tetrahydro-5H-pyrazolo[4,3-c]pyridine-5-carboxamide] returned an IC50 with LNCaP cells (CellTiter-Glo (Table 2)) of 1250 nM. The inhibition at 0.01 µM at P300 (setting [2]) is below 20%.

In the test with LNCaP cells (CellTiter-Glo (Table 3)), `CC(=O)N1CCc2c(c(N3CCCc4cc(-c5cnn(C)c5)c(C(F)F)cc43)nn2C2CCN(CCCNC(=O)CNc3cccc4c3C(=O)N(C3CCC(=O)NC3=O)C4=O)CC2)C1` (stereo not shown) [P-124, N-(3-(4-(5-Acetyl-3-(7-(difluoromethyl)-6-(1-methyl-1H-pyrazol-4-yl)-3,4-dihydroquinolin-1(2H)-yl)-4,5,6,7-tetrahydro-1H-pyrazolo[4,3-c]pyridin-1-yl)piperidin-1-yl)propyl)-2-((2-(2,6-dioxopiperidin-3-yl)-1,3-dioxoisoindolin-4-yl)amino)acetamide] had an IC50 above 10000 nM. Further, on P300 (setting [1]), the inhibition at 0.01 µM was below 20%.

In the test on LNCaP cells (CellTiter-Glo (Table 3)), `CC(=O)N1CCc2c(c(N3CCCc4cc(-c5cnn(C)c5)c(C(F)F)cc43)nn2C2CCN(C(=O)CCCCCOc3cccc4c3C(=O)N(C3CCC(=O)NC3=O)C4=O)CC2)C1` (stereo not shown) [P-117, 4-((6-(4-(5-Acetyl-3-(7-(difluoromethyl)-6-(1-methyl-1H-pyrazol-4-yl)-3,4-dihydroquinolin-1(2H)-yl)-4,5,6,7-tetrahydro-1H-pyrazolo[4,3-c]pyridin-1-yl)piperidin-1-yl)-6-oxohexyl)oxy)-2-(2,6-dioxopiperidin-3-yl)isoindoline-1,3-dione] showed an IC50 of 41.2 nM. The inhibition at 0.01 µM at P300 (setting [1]) is above 80%.

In the test with LNCaP cells (CellTiter-Glo (Table 2)), `CNC(=O)N1CCc2c(c(N3CCCc4cc(-c5cnn(CC(=O)NCCCCCNc6ccc7c(c6)C(=O)N(C6CCC(=O)NC6=O)C7=O)c5)c(C(F)F)cc43)nn2C2CCOCC2)C1` (stereo not shown) [P-019] registered an IC50 of 14.7 nM. In addition, in the test with LNCaP cells (from 10 μM, 12-point 3-fold serial dilution, 3 days (FIG. 4)), the “viability of LNCaP cells” value was “dose-dependently suppressed viability”. Also, at P300 (setting [2]), the inhibition at 0.01 µM was 50 to 80%.
